Results taken from ChEMBL document CHEMBL1201862, “PubChem BioAssay data set” (2004).
The source made the active and inactive calls.

Key:
Assay type in all cases: functional
[1] = biological target: Platelet-derived growth factor receptor alpha (Homo sapiens, UniProt P16234); assay: Navigating the Kinome. Panel member name: PDGFRA
[2] = biological target: Macrophage-stimulating protein receptor (Homo sapiens, UniProt Q04912); assay: Navigating the Kinome. Panel member name: MST1R
Activated CDC42 kinase 1 = Activated CDC42 kinase 1 (Homo sapiens, UniProt Q07912); assay: Navigating the Kinome. Panel member name: ACK1
[3] = biological target: G protein-coupled receptor kinase 5 (Homo sapiens, UniProt P34947); assay: Navigating the Kinome. Panel member name: GPRK5
[4] = biological target: Cyclin-dependent kinase 9 (Homo sapiens, UniProt P50750);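 further: value from the CDK9 entry of a kinome-spanning kinase panel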
[5] = biological target: RAC-alpha serine/threonine-protein kinase (Homo sapiens, UniProt P31749);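 further: AKT1 affinity measured as one member of a kinome-wide kinase profiling panel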
[6] = biological target: Protein kinase C iota type (Homo sapiens, UniProt P41743);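 further: measured within a kinome-wide kinase panel, PRKCI as panel member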
[7] = biological target: Cyclin-dependent kinase 5 (Homo sapiens, UniProt Q00535);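 further: CDK5 measured as one member of a kinase profiling panel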
[8] = biological target: Inhibitor of nuclear factor kappa-B kinase subunit epsilon (Homo sapiens, UniProt Q14164); assay: Navigating the Kinome. Panel member name: IKBKE
[9] = biological target: Ribosomal protein S6 kinase beta-1 (Homo sapiens, UniProt P23443);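 further: measured as one member of a kinome-wide profiling panel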
[10] = biological target: Serine/threonine-protein kinase pim-1 (Homo sapiens, UniProt P11309)
[11] = biological target: Ribosomal protein S6 kinase alpha-5 (Homo sapiens, UniProt O75582)
[12] = biological target: Inhibitor of nuclear factor kappa-B kinase subunit beta (Homo sapiens, UniProt O14920)
[13] = biological target: Protein-tyrosine kinase 2-beta (Homo sapiens, UniProt Q14289)
Focal adhesion kinase 1 = Focal adhesion kinase 1 (Homo sapiens, UniProt Q05397);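 further: measured as one member of a kinome panel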
[14] = biological target: Cyclin-dependent kinase 19 (Homo sapiens, UniProt Q9BWU1); assay: Navigating the Kinome. Panel member name: CDC2L6
[15] = biological target: Cyclin-dependent kinase 2 (Homo sapiens, UniProt P24941);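 further: CDK2 measured as one member of a broad kinome profiling panel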
[16] = biological target: Calcium/calmodulin-dependent protein kinase kinase 2 (Homo sapiens, UniProt Q96RR4); assay: Navigating the Kinome. Panel member name: CAMKK2

Sequence of RAC-alpha serine/threonine-protein kinase (P31749 whole entry): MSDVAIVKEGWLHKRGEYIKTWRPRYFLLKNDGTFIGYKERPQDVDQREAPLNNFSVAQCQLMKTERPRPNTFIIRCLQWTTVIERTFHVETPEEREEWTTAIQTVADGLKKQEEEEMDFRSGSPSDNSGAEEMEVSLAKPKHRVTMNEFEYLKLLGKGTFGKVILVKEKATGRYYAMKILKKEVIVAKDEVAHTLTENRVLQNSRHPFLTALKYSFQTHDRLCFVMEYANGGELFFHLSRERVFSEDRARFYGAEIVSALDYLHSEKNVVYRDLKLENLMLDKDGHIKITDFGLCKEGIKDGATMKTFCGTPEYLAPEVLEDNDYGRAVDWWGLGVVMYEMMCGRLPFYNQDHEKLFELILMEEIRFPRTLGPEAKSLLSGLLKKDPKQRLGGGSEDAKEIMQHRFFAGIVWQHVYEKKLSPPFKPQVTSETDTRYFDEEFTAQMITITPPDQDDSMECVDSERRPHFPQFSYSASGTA
Sequence of Cyclin-dependent kinase 5 (Q00535 whole entry): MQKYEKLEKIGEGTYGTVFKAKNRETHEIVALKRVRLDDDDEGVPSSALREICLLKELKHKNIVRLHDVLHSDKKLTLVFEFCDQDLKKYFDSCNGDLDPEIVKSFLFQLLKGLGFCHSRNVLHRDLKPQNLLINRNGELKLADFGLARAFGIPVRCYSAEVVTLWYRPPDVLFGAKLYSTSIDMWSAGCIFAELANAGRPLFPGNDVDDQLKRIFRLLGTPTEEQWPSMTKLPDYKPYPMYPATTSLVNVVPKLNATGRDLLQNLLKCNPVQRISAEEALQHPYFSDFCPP
Sequence of Protein kinase C iota type (P41743 whole entry): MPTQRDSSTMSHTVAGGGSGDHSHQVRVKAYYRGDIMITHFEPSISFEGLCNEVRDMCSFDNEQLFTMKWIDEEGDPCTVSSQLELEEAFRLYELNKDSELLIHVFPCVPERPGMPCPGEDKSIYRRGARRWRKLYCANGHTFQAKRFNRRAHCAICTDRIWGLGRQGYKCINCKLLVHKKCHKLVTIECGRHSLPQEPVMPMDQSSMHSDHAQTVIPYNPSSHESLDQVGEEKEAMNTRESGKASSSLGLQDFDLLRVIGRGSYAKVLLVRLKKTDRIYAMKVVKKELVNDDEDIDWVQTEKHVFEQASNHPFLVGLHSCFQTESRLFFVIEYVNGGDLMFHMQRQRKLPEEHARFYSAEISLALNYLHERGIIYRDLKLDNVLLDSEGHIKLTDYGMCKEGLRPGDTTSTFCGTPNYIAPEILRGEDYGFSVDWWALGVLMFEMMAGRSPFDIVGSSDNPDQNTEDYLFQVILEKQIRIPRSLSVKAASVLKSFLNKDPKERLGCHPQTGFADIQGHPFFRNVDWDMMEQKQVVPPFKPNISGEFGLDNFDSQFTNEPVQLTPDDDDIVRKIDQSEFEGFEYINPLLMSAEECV
Sequence of G protein-coupled receptor kinase 5 (P34947 whole entry): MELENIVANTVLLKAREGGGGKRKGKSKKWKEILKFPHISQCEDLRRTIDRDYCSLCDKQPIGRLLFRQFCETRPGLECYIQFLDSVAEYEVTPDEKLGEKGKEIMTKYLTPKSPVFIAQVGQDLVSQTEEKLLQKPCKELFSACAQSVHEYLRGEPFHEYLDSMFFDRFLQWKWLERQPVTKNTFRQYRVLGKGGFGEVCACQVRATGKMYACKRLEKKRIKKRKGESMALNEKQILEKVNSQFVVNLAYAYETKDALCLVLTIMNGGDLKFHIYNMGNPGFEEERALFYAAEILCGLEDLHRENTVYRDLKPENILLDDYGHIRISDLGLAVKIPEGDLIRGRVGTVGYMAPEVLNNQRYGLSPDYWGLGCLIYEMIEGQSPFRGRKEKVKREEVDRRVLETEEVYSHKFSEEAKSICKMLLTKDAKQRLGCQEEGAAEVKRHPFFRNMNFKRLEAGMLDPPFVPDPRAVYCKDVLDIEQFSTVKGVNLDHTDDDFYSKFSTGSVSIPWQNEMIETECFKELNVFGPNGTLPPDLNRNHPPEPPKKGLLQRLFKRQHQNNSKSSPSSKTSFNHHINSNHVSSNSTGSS
Sequence of Serine/threonine-protein kinase pim-1 (P11309 whole entry): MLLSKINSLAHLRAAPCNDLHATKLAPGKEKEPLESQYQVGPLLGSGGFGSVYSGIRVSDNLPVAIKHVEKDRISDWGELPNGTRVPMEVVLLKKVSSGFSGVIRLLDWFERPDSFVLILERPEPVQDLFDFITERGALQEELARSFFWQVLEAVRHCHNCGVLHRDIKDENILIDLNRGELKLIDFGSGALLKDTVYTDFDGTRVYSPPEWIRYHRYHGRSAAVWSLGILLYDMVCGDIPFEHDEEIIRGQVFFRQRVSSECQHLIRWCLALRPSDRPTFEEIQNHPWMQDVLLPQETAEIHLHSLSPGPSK
Sequence of Cyclin-dependent kinase 9 (P50750 whole entry): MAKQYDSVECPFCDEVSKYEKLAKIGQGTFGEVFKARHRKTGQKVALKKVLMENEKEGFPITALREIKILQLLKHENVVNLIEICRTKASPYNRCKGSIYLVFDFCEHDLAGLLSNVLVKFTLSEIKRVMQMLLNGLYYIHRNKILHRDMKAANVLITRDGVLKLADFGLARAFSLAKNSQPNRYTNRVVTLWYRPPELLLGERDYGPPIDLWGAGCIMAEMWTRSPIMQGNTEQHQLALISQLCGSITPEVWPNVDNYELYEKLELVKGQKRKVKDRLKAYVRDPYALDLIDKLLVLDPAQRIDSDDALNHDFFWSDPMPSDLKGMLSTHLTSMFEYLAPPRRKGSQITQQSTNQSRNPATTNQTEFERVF
Sequence of Activated CDC42 kinase 1 (Q07912 whole entry): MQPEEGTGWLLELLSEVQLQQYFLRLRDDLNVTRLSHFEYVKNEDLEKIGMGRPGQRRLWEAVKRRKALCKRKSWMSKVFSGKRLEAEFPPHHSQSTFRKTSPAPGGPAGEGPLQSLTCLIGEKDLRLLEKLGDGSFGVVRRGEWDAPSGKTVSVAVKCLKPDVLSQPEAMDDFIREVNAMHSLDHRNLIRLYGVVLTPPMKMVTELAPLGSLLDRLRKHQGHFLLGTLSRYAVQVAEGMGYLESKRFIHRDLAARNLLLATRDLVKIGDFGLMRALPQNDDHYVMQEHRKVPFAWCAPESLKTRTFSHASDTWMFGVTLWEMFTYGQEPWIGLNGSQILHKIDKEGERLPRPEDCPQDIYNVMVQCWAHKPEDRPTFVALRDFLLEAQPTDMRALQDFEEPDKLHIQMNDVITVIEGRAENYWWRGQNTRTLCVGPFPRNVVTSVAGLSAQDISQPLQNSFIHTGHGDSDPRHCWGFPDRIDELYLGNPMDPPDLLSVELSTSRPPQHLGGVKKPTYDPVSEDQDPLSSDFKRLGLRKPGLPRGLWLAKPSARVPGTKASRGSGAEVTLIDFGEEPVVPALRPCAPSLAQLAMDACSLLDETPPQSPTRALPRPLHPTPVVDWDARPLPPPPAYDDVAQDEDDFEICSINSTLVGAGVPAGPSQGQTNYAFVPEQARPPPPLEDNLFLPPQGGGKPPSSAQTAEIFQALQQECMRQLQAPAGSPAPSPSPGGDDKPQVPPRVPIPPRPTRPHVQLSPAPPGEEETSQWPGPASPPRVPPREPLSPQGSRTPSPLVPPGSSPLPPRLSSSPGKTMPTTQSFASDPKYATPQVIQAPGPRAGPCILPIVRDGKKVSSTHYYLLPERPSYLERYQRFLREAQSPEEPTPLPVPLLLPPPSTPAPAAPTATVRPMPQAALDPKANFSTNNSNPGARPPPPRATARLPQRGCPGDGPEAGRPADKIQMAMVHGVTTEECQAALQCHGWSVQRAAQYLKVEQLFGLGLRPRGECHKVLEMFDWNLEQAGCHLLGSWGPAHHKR
Sequence of Inhibitor of nuclear factor kappa-B kinase subunit epsilon (Q14164 whole entry): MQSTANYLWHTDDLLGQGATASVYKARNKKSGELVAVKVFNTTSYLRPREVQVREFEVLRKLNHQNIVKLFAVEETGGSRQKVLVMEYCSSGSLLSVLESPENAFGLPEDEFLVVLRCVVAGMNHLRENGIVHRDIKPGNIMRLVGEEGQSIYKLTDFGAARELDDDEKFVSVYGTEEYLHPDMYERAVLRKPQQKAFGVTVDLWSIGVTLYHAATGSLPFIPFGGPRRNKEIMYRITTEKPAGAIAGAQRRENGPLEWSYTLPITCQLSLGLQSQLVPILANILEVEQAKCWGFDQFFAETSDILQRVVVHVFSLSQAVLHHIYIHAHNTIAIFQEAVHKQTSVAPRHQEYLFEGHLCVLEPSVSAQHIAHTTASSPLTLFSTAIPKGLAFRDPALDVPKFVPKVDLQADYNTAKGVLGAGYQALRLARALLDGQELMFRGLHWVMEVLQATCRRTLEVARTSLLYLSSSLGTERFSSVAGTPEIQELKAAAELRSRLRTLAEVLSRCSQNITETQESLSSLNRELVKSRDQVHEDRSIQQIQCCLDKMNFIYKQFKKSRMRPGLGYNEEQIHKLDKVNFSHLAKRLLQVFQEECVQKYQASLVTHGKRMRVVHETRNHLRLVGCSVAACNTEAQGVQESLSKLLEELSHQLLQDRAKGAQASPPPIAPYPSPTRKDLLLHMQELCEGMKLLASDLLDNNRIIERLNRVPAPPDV
Sequence of Ribosomal protein S6 kinase beta-1 (P23443 whole entry): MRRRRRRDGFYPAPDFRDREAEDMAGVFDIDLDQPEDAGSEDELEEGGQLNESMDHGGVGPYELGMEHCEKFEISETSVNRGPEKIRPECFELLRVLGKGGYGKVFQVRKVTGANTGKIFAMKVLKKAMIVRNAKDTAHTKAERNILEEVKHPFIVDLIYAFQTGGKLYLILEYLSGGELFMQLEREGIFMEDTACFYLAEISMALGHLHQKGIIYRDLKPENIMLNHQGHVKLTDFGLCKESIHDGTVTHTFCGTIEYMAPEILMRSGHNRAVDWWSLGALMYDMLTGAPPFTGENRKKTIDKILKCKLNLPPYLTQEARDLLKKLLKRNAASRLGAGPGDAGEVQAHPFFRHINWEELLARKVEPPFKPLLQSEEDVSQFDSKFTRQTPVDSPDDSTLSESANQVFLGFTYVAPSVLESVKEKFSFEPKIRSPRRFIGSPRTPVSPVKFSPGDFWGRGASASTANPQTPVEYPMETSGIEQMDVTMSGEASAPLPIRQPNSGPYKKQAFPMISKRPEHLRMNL

In the case of `NC(=O)c1cc(-c2ccnc(N)n2)[nH]c1-c1ccc(Cl)cc1Cl`, the Ki [1] is reported as > 2510 nM (inactive), the Ki [2] is reported as > 3980 nM (inactive) and the Ki (Activated CDC42 kinase 1) is reported as 1260 nM (active). For the same compound, the pKi (Activated CDC42 kinase 1) was 5.9, the Ki [3] was 2510 nM (active) and the pKi [3] was 5.6. The Ki [4] was 3.98 nM (active), the pKi [4] was 8.4 and the Ki [5] was 7940 nM (active). The pKi [5] was 5.1, the Ki [6] was 794 nM (active) and the pKi [6] was 6.1. For the same compound, the Ki [7] was 316 nM (active), the pKi [7] was 6.5 and the Ki [8] was > 3160 nM (inactive). For the same compound, the Ki [9] was > 6310 nM (inactive), the Ki [10] was 1580 nM (active) and the pKi [10] was 5.8.

For `NC(COc1cncc(-c2ccc3c(c2)C(=Cc2ccco2)C(=O)N3)c1)Cc1c[nH]c2ccccc12` (stereo not given), the Ki [11] was 25.1 nM (active), the Ki [12] was 1260 nM (active) and the Ki [13] was > 1580 nM (inactive). For the same compound, the Ki (Focal adhesion kinase 1) was > 1580 nM (inactive), the Ki [14] was > 100000 nM (inactive) and the Ki [15] was 126 nM (active).

For `Cc1ccc(-n2nc(C(C)(C)C)cc2NC(=O)Nc2ccc(OCCN3CCOCC3)c3ccccc23)cc1` [DORAMAPIMOD], the Ki [16] was > 2510 nM (inactive).
